Test results taken from patent US7439039B2, “Assays for novel serotonin transporter (SERT) blockers” (priority 2003, dated 2008).
Where a name gives a salt, the structure may show the parent alone.

Target: hSERT Y95F (Homo sapiens, UniProt P31645, Y95F)
Test: not given
Settings: not given

With `NCCc1c[nH]c2ccc(O)cc12` [5HT, 5-hydroxytryptamine] the recognition was “appeared normal”.

Target: hSERT WT (Homo sapiens, UniProt P31645)
Test: cell-based
Type: cell-based
Settings: not given

First: NCCc1c[nH]c2c(O)c(O)c(O)cc12 [5,6,7 trihydroxytryptamine]
Second: NCCc1c[nH]c2c(O)cccc12 [7-hydroxytryptamine]
The EC50 of the first is 10-fold higher: 14.3 µM for the first, 1.4 µM for the second.

Going from `OC1(c2ccc(Cl)cc2)c2ccccc2C2=NCCN21` (stereo not drawn) [Mazindol] to `CNCCC(Oc1ccccc1OC)c1ccccc1` (stereo not drawn) [Nisoxetine], the EC50 falls from 2.9 µM to 1.36 µM (2.1-fold). The second is the more potent here.

`NCCc1c[nH]c2ccccc12` [Tryptamine] was tested, and the EC50 was 0.2 µM.

Same assay, conditions: read-out: EC50(μM) WT

First: CC(N)Cc1c[nH]c2ccc(O)cc12 (stereo not drawn) [Alpha-methylserotonin maleate]
Second: CNC(C)Cc1ccc2c(c1)OCO2 (stereo not drawn) [MDMA]
The EC50 of the first is 3.1-fold higher: 2.2 µM for the first, 0.7 µM for the second.

Compound `COC(=O)[C@H]1C(c2ccc(I)cc2)C[C@@H]2CC[C@H]1N2C` (stereo partly drawn) [RTI-55] has an EC50 of 0.0007 µM.
